Key:
HepG2 [1] = experiment: drug sensitivity score (DSS) for viability; higher = more toxic; extreme values may be limits of the assay; details: 72 h
Caco-2 [2] = experiment: as above; details: 72 h
Calu-3 [3] = experiment: as above; details: 72 h
Vero E6 [4] = experiment: as above; details: 72 h
U2OS [5] = experiment: as above; details: 72 h
[6] = test system: A549-ACE2 infected with SARS-CoV-2; experiment: morphology score (similarity to uninfected cells); higher = more like uninfected cells; details: 24 h
A549-ACE2 [7] = experiment: drug-induced phospholipidosis relative to tamoxifen; higher = more phospholipidosis
[8] = test system: A549-ACE2 infected with SARS-CoV-2; experiment: SARS-CoV-2 infection rate relative to DMSO; higher = more infection; details: 24 h
HepG2 [9] = experiment: relative viability EC50 (midpoint between 100% and the lowest measured viability); higher = less toxic; details: 72 h
Caco-2 [10] = experiment: as above; details: 72 h
Calu-3 [11] = experiment: as above; details: 72 h
Vero E6 [12] = experiment: as above; details: 72 h
U2OS [13] = experiment: as above; details: 72 h
A549-ACE2 [14] = experiment: phospholipidosis EC50; higher = less potent phospholipidosis inducer
[15] = test system: A549-ACE2 infected with SARS-CoV-2; experiment: cell count relative to DMSO; higher = less toxic; details: 24 h
HepG2 [16] = experiment: cell viability relative to DMSO; higher = less toxic; details: 72 h
Caco-2 [17] = experiment: as above; details: 72 h
Calu-3 [18] = experiment: as above; details: 72 h
Vero E6 [19] = experiment: as above; details: 72 h
U2OS [20] = experiment: as above; details: 72 h

C[C@@H]1C[C@H]2[C@@H]3CCC4=CC(=O)C=C[C@]4(C)[C@@]3(Cl)[C@@H](O)C[C@]2(C)[C@@]1(OC(=O)c1ccco1)C(=O)CCl [MOMETASONE FUROATE]
Details	drug sensitivity score	relative viability EC50 [µM]
Caco-2 [2]	0.5	–
Caco-2 [10]	–	> 10
Calu-3 [3]	0	–
Calu-3 [11]	–	> 10
HepG2 [1]	0	–
HepG2 [9]	–	> 10
U2OS [5]	0	–
U2OS [13]	–	> 10
Vero E6 [4]	0	–
Vero E6 [12]	–	> 10

Details	SARS-CoV-2 infection rate [%]	cell count [%]	cell viability [%]	morphology score	phospholipidosis EC50 [µM]
A549-ACE2 [14], 24 h	–	–	–	–	3.35
Caco-2 [17], 1 nM	–	–	91.3	–	–
Caco-2 [17], 10 nM	–	–	109	–	–
Caco-2 [17], 100 nM	–	–	85.6	–	–
Caco-2 [17], 1000 nM	–	–	96	–	–
Caco-2 [17], 10000 nM	–	–	83.1	–	–
Calu-3 [18], 1 nM	–	–	98.7	–	–
Calu-3 [18], 10 nM	–	–	101	–	–
Calu-3 [18], 100 nM	–	–	90.3	–	–
Calu-3 [18], 1000 nM	–	–	97.1	–	–
Calu-3 [18], 10000 nM	–	–	90.9	–	–
HepG2 [16], 1 nM	–	–	114	–	–
HepG2 [16], 10 nM	–	–	116	–	–
HepG2 [16], 100 nM	–	–	122	–	–
HepG2 [16], 1000 nM	–	–	97.4	–	–
HepG2 [16], 10000 nM	–	–	105	–	–
U2OS [20], 1 nM	–	–	98.5	–	–
U2OS [20], 10 nM	–	–	101	–	–
U2OS [20], 100 nM	–	–	94	–	–
U2OS [20], 1000 nM	–	–	102	–	–
U2OS [20], 10000 nM	–	–	92.8	–	–
Vero E6 [19], 1 nM	–	–	109	–	–
Vero E6 [19], 10 nM	–	–	100	–	–
Vero E6 [19], 100 nM	–	–	103	–	–
Vero E6 [19], 1000 nM	–	–	102	–	–
Vero E6 [19], 10000 nM	–	–	100	–	–
[6], 0.3 µM	–	–	–	0.19	–
[6], 3 µM	–	–	–	0.42	–
[6], 10 µM	–	–	–	0.6	–
[6], 30 µM	–	–	–	0.34	–
[8], 0.3 µM	99	–	–	–	–
[8], 3 µM	69	–	–	–	–
[8], 10 µM	28	–	–	–	–
[8], 30 µM	71	–	–	–	–
[15], 0.3 µM	–	97	–	–	–
[15], 3 µM	–	103	–	–	–
[15], 10 µM	–	108	–	–	–
[15], 30 µM	–	94	–	–	–

drug-induced phospholipidosis [%], A549-ACE2 [7]
Details	0.3 µM	0.833333 µM	3.33333 µM	6.66667 µM	10 µM	30 µM
24 h	10.4	17.5	33.2	53.3	54.9	51.9
48 h	5.23	13.8	27.7	41.1	38.5	41.2
72 h	-4	-3.08	16.9	30.4	39.5	29.6

CC(C)C[C@H](NC(=O)CNC(=O)c1cc(Cl)ccc1Cl)B1OC(=O)C(CC(=O)O)(CC(=O)O)O1 [MLN9708]
Details	drug sensitivity score	relative viability EC50 [µM]
Caco-2 [2]	28.8	–
Calu-3 [3]	27.3	–
HepG2 [1]	22.1	–
HepG2 [9]	–	0.139
U2OS [5]	24.7	–
Vero E6 [4]	23.8	–

Details	SARS-CoV-2 infection rate, [8] [%]	cell count, [15] [%]	cell viability, Caco-2 [17] [%]	cell viability, Calu-3 [18] [%]	cell viability, HepG2 [16] [%]	cell viability, U2OS [20] [%]	cell viability, Vero E6 [19] [%]	morphology score, [6]
1 nM	–	–	99.6	95.1	89.6	101	97	–
10 nM	–	–	94.6	95.1	104	95.8	99.5	–
0.1 µM	88	88	–	–	–	–	–	0.35
100 nM	–	–	11.4	19.6	65	43.2	44.1	–
0.3 µM	83	78	–	–	–	–	–	0.28
1 µM	48	65	–	–	–	–	–	0.27
1000 nM	–	–	5.1	6.6	4.3	0.5	10.5	–
3 µM	33	57	–	–	–	–	–	0.28
10000 nM	–	–	5	5.2	0.5	0	4.8	–

A549-ACE2 [7], 24 h
Details	drug-induced phospholipidosis [%]
0.3 µM	4.58
0.833333 µM	-2.83

CC(C)C[C@H](NC(=O)CNC(=O)c1cc(Cl)ccc1Cl)B1OC(=O)C(CC(=O)O)(CC(=O)O)O1 [ixazomib-citrate]
Details	drug sensitivity score	relative viability EC50 [µM]
Caco-2 [2]	25.9	–
Calu-3 [3]	25.5	–
HepG2 [1]	17.2	–
HepG2 [9]	–	0.358
U2OS [5]	22.4	–
Vero E6 [4]	19.6	–

Details	SARS-CoV-2 infection rate, [8] [%]	cell count, [15] [%]	cell viability, Caco-2 [17] [%]	cell viability, Calu-3 [18] [%]	cell viability, HepG2 [16] [%]	cell viability, U2OS [20] [%]	cell viability, Vero E6 [19] [%]	morphology score, [6]
1 nM	–	–	105	107	106	107	106	–
10 nM	–	–	103	103	107	106	102	–
0.1 µM	81	97	–	–	–	–	–	0.41
100 nM	–	–	22.9	27.9	98	69.6	72.5	–
0.3 µM	85	74	–	–	–	–	–	0.25
1 µM	47	69	–	–	–	–	–	0.3
1000 nM	–	–	6.1	5.6	6.3	0.4	11.5	–
3 µM	43	60	–	–	–	–	–	0.28
10000 nM	–	–	7	4.8	0.3	-0.3	4.8	–

Details	drug-induced phospholipidosis [%]
A549-ACE2 [7], 0.3 µM, 24 h	5.51

Cc1[nH]c(/C=C2\C(=O)Nc3ccc(S(=O)(=O)Cc4c(Cl)cccc4Cl)cc32)c(C)c1C(=O)N1CCC[C@@H]1CN1CCCC1
Details	drug sensitivity score	relative viability EC50 [µM]
Caco-2 [2]	5.1	–
Caco-2 [10]	–	3.36
Calu-3 [3]	5.4	–
Calu-3 [11]	–	3.17
HepG2 [1]	5.1	–
HepG2 [9]	–	3.39
U2OS [5]	5.3	–
U2OS [13]	–	3.35
Vero E6 [4]	3.6	–

Details	SARS-CoV-2 infection rate [%]	cell count [%]	cell viability [%]	morphology score	phospholipidosis EC50 [µM]
A549-ACE2 [14], 24 h	–	–	–	–	3.45
A549-ACE2 [14], 48 h	–	–	–	–	3.61
A549-ACE2 [14], 72 h	–	–	–	–	3.54
Caco-2 [17], 1 nM	–	–	90.9	–	–
Caco-2 [17], 10 nM	–	–	99.2	–	–
Caco-2 [17], 100 nM	–	–	104	–	–
Caco-2 [17], 1000 nM	–	–	103	–	–
Caco-2 [17], 10000 nM	–	–	3.7	–	–
Calu-3 [18], 1 nM	–	–	100	–	–
Calu-3 [18], 10 nM	–	–	98.2	–	–
Calu-3 [18], 100 nM	–	–	109	–	–
Calu-3 [18], 1000 nM	–	–	100	–	–
Calu-3 [18], 10000 nM	–	–	4.3	–	–
HepG2 [16], 1 nM	–	–	102	–	–
HepG2 [16], 10 nM	–	–	96.9	–	–
HepG2 [16], 100 nM	–	–	102	–	–
HepG2 [16], 1000 nM	–	–	104	–	–
HepG2 [16], 10000 nM	–	–	3.3	–	–
U2OS [20], 1 nM	–	–	97.2	–	–
U2OS [20], 10 nM	–	–	100	–	–
U2OS [20], 100 nM	–	–	95.7	–	–
U2OS [20], 1000 nM	–	–	103	–	–
U2OS [20], 10000 nM	–	–	0.9	–	–
Vero E6 [19], 1 nM	–	–	99.9	–	–
Vero E6 [19], 10 nM	–	–	97.5	–	–
Vero E6 [19], 100 nM	–	–	101	–	–
Vero E6 [19], 1000 nM	–	–	91.1	–	–
Vero E6 [19], 10000 nM	–	–	57	–	–
[6], 0.1 µM	–	–	–	-0.01	–
[6], 0.3 µM	–	–	–	0.51	–
[6], 1 µM	–	–	–	0.6	–
[6], 3 µM	–	–	–	0.73	–
[8], 0.1 µM	109	–	–	–	–
[8], 0.3 µM	83	–	–	–	–
[8], 1 µM	74	–	–	–	–
[8], 3 µM	26	–	–	–	–
[15], 0.1 µM	–	98	–	–	–
[15], 0.3 µM	–	109	–	–	–
[15], 1 µM	–	108	–	–	–
[15], 3 µM	–	115	–	–	–

drug-induced phospholipidosis [%], A549-ACE2 [7]
Details	0.3 µM	0.833333 µM	3.33333 µM	6.66667 µM	10 µM
24 h	20.1	33	77.3	173	149
48 h	14.3	18.9	53.1	177	149
72 h	13.7	15.6	43.6	149	64.6

From the supplement of paper PMC13380429
